From the NIST ThermoML archive (doi:10.1016/j.jct.2018.05.029)
± gives the expanded uncertainty stated by the source.

Assay: molar heat capacity at saturation pressure

**Q.** Which results are given for `Cc1cc2ccccc2[nH]1` [2-methylindole]?
**A.** molar heat capacity (10 K, Crystal, Vacuum adiabatic calorimetry): 2.311 ± 0.033 J/K/mol; molar heat capacity (11.27 K, Crystal, Vacuum adiabatic calorimetry): 3.226 ± 0.042 J/K/mol; molar heat capacity (12.41 K, Crystal, Vacuum adiabatic calorimetry): 4.157 ± 0.05 J/K/mol; molar heat capacity (13.64 K, Crystal, Vacuum adiabatic calorimetry): 5.288 ± 0.058 J/K/mol; molar heat capacity (15.08 K, Crystal, Vacuum adiabatic calorimetry): 6.718 ± 0.067 J/K/mol; molar heat capacity (16.68 K, Crystal, Vacuum adiabatic calorimetry): 8.364 ± 0.075 J/K/mol; molar heat capacity (18.46 K, Crystal, Vacuum adiabatic calorimetry): 10.26 ± 0.091 J/K/mol; molar heat capacity (20 K, Crystal, Vacuum adiabatic calorimetry): 11.87 ± 0.091 J/K/mol; molar heat capacity (20.49 K, Crystal, Vacuum adiabatic calorimetry): 12.38 ± 0.091 J/K/mol; molar heat capacity (22.77 K, Crystal, Vacuum adiabatic calorimetry): 14.82 ± 0.091 J/K/mol; molar heat capacity (25.3 K, Crystal, Vacuum adiabatic calorimetry): 17.44 ± 0.091 J/K/mol; molar heat capacity (27.77 K, Crystal, Vacuum adiabatic calorimetry): 19.95 ± 0.083 J/K/mol; molar heat capacity (30 K, Crystal, Vacuum adiabatic calorimetry): 22.09 ± 0.075 J/K/mol; molar heat capacity (30.59 K, Crystal, Vacuum adiabatic calorimetry): 22.64 ± 0.075 J/K/mol; molar heat capacity (34.09 K, Crystal, Vacuum adiabatic calorimetry): 25.92 ± 0.083 J/K/mol; molar heat capacity (37.85 K, Crystal, Vacuum adiabatic calorimetry): 29.24 ± 0.091 J/K/mol; molar heat capacity (40 K, Crystal, Vacuum adiabatic calorimetry): 31.03 ± 0.1 J/K/mol; molar heat capacity (41.97 K, Crystal, Vacuum adiabatic calorimetry): 32.62 ± 0.1 J/K/mol; molar heat capacity (46.6 K, Crystal, Vacuum adiabatic calorimetry): 36.27 ± 0.11 J/K/mol; molar heat capacity (50 K, Crystal, Vacuum adiabatic calorimetry): 38.75 ± 0.12 J/K/mol; molar heat capacity (51.65 K, Crystal, Vacuum adiabatic calorimetry): 39.93 ± 0.12 J/K/mol; molar heat capacity (53.69 K, Crystal, Vacuum adiabatic calorimetry): 41.38 ± 0.12 J/K/mol; molar heat capacity (57.12 K, Crystal, Vacuum adiabatic calorimetry): 43.67 ± 0.12 J/K/mol; molar heat capacity (59.07 K, Crystal, Vacuum adiabatic calorimetry): 45 ± 0.13 J/K/mol; molar heat capacity (60 K, Crystal, Vacuum adiabatic calorimetry): 45.61 ± 0.13 J/K/mol; molar heat capacity (64.85 K, Crystal, Vacuum adiabatic calorimetry): 48.69 ± 0.14 J/K/mol; molar heat capacity (70 K, Crystal, Vacuum adiabatic calorimetry): 51.82 ± 0.14 J/K/mol; molar heat capacity (71.32 K, Crystal, Vacuum adiabatic calorimetry): 52.61 ± 0.15 J/K/mol; molar heat capacity (78.49 K, Crystal, Vacuum adiabatic calorimetry): 56.75 ± 0.16 J/K/mol; molar heat capacity (80 K, Crystal, Vacuum adiabatic calorimetry): 57.59 ± 0.16 J/K/mol; molar heat capacity (86.43 K, Crystal, Vacuum adiabatic calorimetry): 61.12 ± 0.17 J/K/mol; molar heat capacity (90 K, Crystal, Vacuum adiabatic calorimetry): 63.03 ± 0.22 J/K/mol; molar heat capacity (95.28 K, Crystal, Vacuum adiabatic calorimetry): 65.82 ± 0.23 J/K/mol; molar heat capacity (100 K, Crystal, Vacuum adiabatic calorimetry): 68.27 ± 0.23 J/K/mol; molar heat capacity (104.89 K, Crystal, Vacuum adiabatic calorimetry): 70.77 ± 0.24 J/K/mol; molar heat capacity (114.73 K, Crystal, Vacuum adiabatic calorimetry): 75.78 ± 0.25 J/K/mol; molar heat capacity (120 K, Crystal, Vacuum adiabatic calorimetry): 78.44 ± 0.25 J/K/mol; molar heat capacity (124.69 K, Crystal, Vacuum adiabatic calorimetry): 80.8 ± 0.26 J/K/mol; molar heat capacity (134.71 K, Crystal, Vacuum adiabatic calorimetry): 85.9 ± 0.27 J/K/mol; molar heat capacity (140 K, Crystal, Vacuum adiabatic calorimetry): 88.58 ± 0.27 J/K/mol; molar heat capacity (144.77 K, Crystal, Vacuum adiabatic calorimetry): 91.01 ± 0.27 J/K/mol; molar heat capacity (154.9 K, Crystal, Vacuum adiabatic calorimetry): 96.19 ± 0.28 J/K/mol; molar heat capacity (160 K, Crystal, Vacuum adiabatic calorimetry): 98.83 ± 0.29 J/K/mol; molar heat capacity (165.05 K, Crystal, Vacuum adiabatic calorimetry): 101.46 ± 0.29 J/K/mol; molar heat capacity (175.19 K, Crystal, Vacuum adiabatic calorimetry): 106.71 ± 0.31 J/K/mol; molar heat capacity (180 K, Crystal, Vacuum adiabatic calorimetry): 109.23 ± 0.31 J/K/mol; molar heat capacity (185.36 K, Crystal, Vacuum adiabatic calorimetry): 112.05 ± 0.32 J/K/mol; molar heat capacity (195.56 K, Crystal, Vacuum adiabatic calorimetry): 117.49 ± 0.32 J/K/mol; molar heat capacity (200 K, Crystal, Vacuum adiabatic calorimetry): 119.87 ± 0.33 J/K/mol; molar heat capacity (205.76 K, Crystal, Vacuum adiabatic calorimetry): 122.96 ± 0.33 J/K/mol; molar heat capacity (215.96 K, Crystal, Vacuum adiabatic calorimetry): 128.49 ± 0.35 J/K/mol; molar heat capacity (220 K, Crystal, Vacuum adiabatic calorimetry): 130.72 ± 0.35 J/K/mol; molar heat capacity (226.14 K, Crystal, Vacuum adiabatic calorimetry): 134.11 ± 0.36 J/K/mol; molar heat capacity (236.28 K, Crystal, Vacuum adiabatic calorimetry): 139.71 ± 0.37 J/K/mol; molar heat capacity (240 K, Crystal, Vacuum adiabatic calorimetry): 141.78 ± 0.37 J/K/mol; molar heat capacity (246.38 K, Crystal, Vacuum adiabatic calorimetry): 145.35 ± 0.38 J/K/mol; molar heat capacity (256.59 K, Crystal, Vacuum adiabatic calorimetry): 151.16 ± 0.39 J/K/mol; molar heat capacity (260 K, Crystal, Vacuum adiabatic calorimetry): 153.09 ± 0.4 J/K/mol; molar heat capacity (266.92 K, Crystal, Vacuum adiabatic calorimetry): 157.02 ± 0.4 J/K/mol; molar heat capacity (276.47 K, Crystal, Vacuum adiabatic calorimetry): 162.53 ± 0.42 J/K/mol; molar heat capacity (277.41 K, Crystal, Vacuum adiabatic calorimetry): 163.05 ± 0.42 J/K/mol; molar heat capacity (280 K, Crystal, Vacuum adiabatic calorimetry): 164.7 ± 0.42 J/K/mol; molar heat capacity (287.09 K, Crystal, Vacuum adiabatic calorimetry): 169.07 ± 0.42 J/K/mol; molar heat capacity (288.08 K, Crystal, Vacuum adiabatic calorimetry): 169.56 ± 0.42 J/K/mol; molar heat capacity (297.66 K, Crystal, Vacuum adiabatic calorimetry): 175.26 ± 0.44 J/K/mol; molar heat capacity (298.15 K, Crystal, Vacuum adiabatic calorimetry): 175.55 ± 0.44 J/K/mol; molar heat capacity (298.15 K, Liquid, Vacuum adiabatic calorimetry): 224.57 ± 0.54 J/K/mol; molar heat capacity (298.88 K, Crystal, Vacuum adiabatic calorimetry): 176.09 ± 0.44 J/K/mol; molar heat capacity (300 K, Crystal, Vacuum adiabatic calorimetry): 176.66 ± 0.44 J/K/mol; molar heat capacity (300 K, Liquid, Vacuum adiabatic calorimetry): 225.41 ± 0.54 J/K/mol; molar heat capacity (302.77 K, Crystal, Vacuum adiabatic calorimetry): 178.44 ± 0.45 J/K/mol; molar heat capacity (304.06 K, Crystal, Vacuum adiabatic calorimetry): 179.13 ± 0.45 J/K/mol; molar heat capacity (308.05 K, Crystal, Vacuum adiabatic calorimetry): 181.6 ± 0.45 J/K/mol; molar heat capacity (309.63 K, Crystal, Vacuum adiabatic calorimetry): 182.65 ± 0.46 J/K/mol; molar heat capacity (311.79 K, Crystal, Vacuum adiabatic calorimetry): 184.11 ± 0.46 J/K/mol; molar heat capacity (312.14 K, Crystal, Vacuum adiabatic calorimetry): 184.35 ± 0.46 J/K/mol; molar heat capacity (320 K, Crystal, Vacuum adiabatic calorimetry): 189.37 ± 0.47 J/K/mol; molar heat capacity (320 K, Liquid, Vacuum adiabatic calorimetry): 234.36 ± 0.56 J/K/mol; molar heat capacity (320.34 K, Crystal, Vacuum adiabatic calorimetry): 189.58 ± 0.47 J/K/mol; molar heat capacity (331.97 K, Crystal, Vacuum adiabatic calorimetry): 197.27 ± 0.48 J/K/mol; molar heat capacity (331.97 K, Liquid, Vacuum adiabatic calorimetry): 239.7 ± 0.57 J/K/mol; molar heat capacity (337.63 K, Liquid, Vacuum adiabatic calorimetry): 242.18 ± 0.57 J/K/mol; molar heat capacity (338.88 K, Liquid, Vacuum adiabatic calorimetry): 242.77 ± 0.57 J/K/mol; molar heat capacity (340 K, Liquid, Vacuum adiabatic calorimetry): 243.31 ± 0.58 J/K/mol; molar heat capacity (341.57 K, Liquid, Vacuum adiabatic calorimetry): 244.01 ± 0.58 J/K/mol; molar heat capacity (349.89 K, Liquid, Vacuum adiabatic calorimetry): 247.67 ± 0.59 J/K/mol; molar heat capacity (350.31 K, Liquid, Vacuum adiabatic calorimetry): 247.9 ± 0.59 J/K/mol; molar heat capacity (360 K, Liquid, Vacuum adiabatic calorimetry): 252.22 ± 0.6 J/K/mol; molar heat capacity (362.02 K, Liquid, Vacuum adiabatic calorimetry): 253.13 ± 0.6 J/K/mol; molar heat capacity (374.86 K, Liquid, Vacuum adiabatic calorimetry): 258.66 ± 0.61 J/K/mol; molar heat capacity (380 K, Liquid, Vacuum adiabatic calorimetry): 260.9 ± 0.62 J/K/mol; molar heat capacity (387.5 K, Liquid, Vacuum adiabatic calorimetry): 264.11 ± 0.62 J/K/mol; molar heat capacity (399.88 K, Liquid, Vacuum adiabatic calorimetry): 269.16 ± 0.63 J/K/mol; molar heat capacity (400 K, Liquid, Vacuum adiabatic calorimetry): 269.22 ± 0.63 J/K/mol; molar heat capacity (412.6 K, Liquid, Vacuum adiabatic calorimetry): 274.35 ± 0.64 J/K/mol; molar heat capacity (420 K, Liquid, Vacuum adiabatic calorimetry): 277.24 ± 0.65 J/K/mol; molar heat capacity (425.58 K, Liquid, Vacuum adiabatic calorimetry): 279.37 ± 0.66 J/K/mol; molar heat capacity (436.98 K, Liquid, Vacuum adiabatic calorimetry): 283.72 ± 0.67 J/K/mol; molar heat capacity (440 K, Liquid, Vacuum adiabatic calorimetry): 284.91 ± 0.67 J/K/mol; molar heat capacity (460 K, Liquid, Small sample (50 mg) DSC): 292.55 ± 4.5 J/K/mol; molar heat capacity (480 K, Liquid, Small sample (50 mg) DSC): 299.89 ± 4.6 J/K/mol; molar heat capacity (500 K, Liquid, Small sample (50 mg) DSC): 307.02 ± 4.8 J/K/mol; molar heat capacity (520 K, Liquid, Small sample (50 mg) DSC): 313.94 ± 5 J/K/mol; molar heat capacity (540 K, Liquid, Small sample (50 mg) DSC): 320.66 ± 5.2 J/K/mol; molar heat capacity (560 K, Liquid, Small sample (50 mg) DSC): 327.16 ± 5.7 J/K/mol; molar heat capacity (580 K, Liquid, Small sample (50 mg) DSC): 333.46 ± 6 J/K/mol; molar heat capacity (600 K, Liquid, Small sample (50 mg) DSC): 339.55 ± 6.5 J/K/mol; molar heat capacity (620 K, Liquid, Small sample (50 mg) DSC): 345.45 ± 6.9 J/K/mol; molar heat capacity (640 K, Liquid, Small sample (50 mg) DSC): 351.22 ± 7.5 J/K/mol; molar heat capacity (660 K, Liquid, Small sample (50 mg) DSC): 356.94 ± 7.9 J/K/mol; molar heat capacity (680 K, Liquid, Small sample (50 mg) DSC): 362.78 ± 8.6 J/K/mol; molar heat capacity (700 K, Liquid, Small sample (50 mg) DSC): 369.01 ± 9 J/K/mol
